Like-named read-outs stand apart in the source and are kept apart here.
System: HCV replicon in Huh7 cells
Assay: HCV replicon cell-based assay
Set-up: species or system HCV strain 1B
Details: Hepatitis C virus
Method in brief: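 Huh7 cells carrying a genotype 1b subgenomic replicon (NS3-NS5B, neo) treated 4 days at 37° C with compound (0.5% DMSO final). NS3 protease activity read in lysates with 10 μM FRET peptide (340/490 nm, kinetic), giving EC50. Confirmed by Taqman qRT-PCR of HCV RNA and a Renilla luciferase replicon.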

## C=CC1C[C@]1(NC(=O)[C@@H]1C[C@@H](OC(=O)Nc2ccccc2-c2ccccc2)CN1C(=O)[C@@H](NC(=O)OC(C)(C)C)C(C)(C)C)C(=O)NS(=O)(=O)C1CC1 (stereo partly drawn) [Compound 8, BocNH-P3(t-BuGly)-P2(Hyp(O—CO(NH-biphen-2-yl)))-P1(1R,2S VinylAcca)—CONHSO2Cyclopropane]
Huh-7, 96 h, HCV replicon, 4 days, read-out: EC50 range
  EC50: 100 to 1000 nM
Huh-7, HCV replicon, read-out: EC50 value in the replicon assay
  EC50: 284 nM
